Activity calls are given as the source filed them.
Columns and labels:
[1] = HIV-1 Vif–A3G interaction blockers – biochemical, TR-FRET, GST-Vif 1-94, biotin-A3G peptide, dose response retest, primary screen (AID 1117319); assay type: functional;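 also: TR-FRET signal of purified GST-Vif binding a biotinylated A3G peptide; inhibitors lower the FRET signal by blocking Vif and A3G binding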
[2] = biological target: Voltage-dependent T-type calcium channel subunit alpha-1H (Homo sapiens, UniProt O95180); assay type: functional;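 also: channel activity triggered by adding a high calcium stimulation buffer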
[3] = biological target: Peroxisome proliferator-activated receptor gamma/Nuclear receptor coactivator 2 (Homo sapiens, UniProt P37231); assay type: functional;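 also: agonist potency for raising coactivator recruitment to the receptor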
[4] = biological target: Peroxisome proliferator-activated receptor gamma/Nuclear receptor coactivator 1 (Homo sapiens, UniProt P37231); assay type: functional;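 also: agonist potency as compounds enhance coactivator SRC-1 recruitment to PPARgamma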
[5] = biological target: Peroxisome proliferator-activated receptor gamma/Nuclear receptor coactivator 3 (Homo sapiens, UniProt P37231); assay type: functional;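 also: agonist potency for raising coactivator recruitment to the receptor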
[6] = toxicity toward HepG2 liver cells – cell-based, plate reader, cherry-pick, antagonist series, cytotoxicity control, dose response (AID 743416); assay type: functional
[7] = blockers of bursicon-stimulated LGR2 cAMP reporter – cell-based, HEK293, CRE-luciferase reporter, cherry pick, set 2, dose response (AID 743343); assay type: functional;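 also: transfected cells were stimulated with diluted bursicon conditioned medium after compound addition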
[8] = blockade of melanocortin 4 receptor signaling – cell-based, plate reader, cherry pick, counter-screen for LGR2 antagonist project, dose response (AID 743444); assay type: functional;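 also: transfected HEK 293 cells stimulated with alpha-MSH peptide; potency of inhibitors of the alpha-MSH evoked signal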
[9] = biological target: T1, Methionyl-tRNA synthetase, putative (Trypanosoma brucei brucei, UniProt Q38C91); assay type: functional, Trypanosoma brucei brucei strain 927/4 GUTat10.1;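 also: Read-out by fluorescence polarization, run as a confirmatory high-throughput counterscreen; potency of MetRS inhibitors measured by reduced AMP formation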
T1 sequence (Q38C91 whole entry): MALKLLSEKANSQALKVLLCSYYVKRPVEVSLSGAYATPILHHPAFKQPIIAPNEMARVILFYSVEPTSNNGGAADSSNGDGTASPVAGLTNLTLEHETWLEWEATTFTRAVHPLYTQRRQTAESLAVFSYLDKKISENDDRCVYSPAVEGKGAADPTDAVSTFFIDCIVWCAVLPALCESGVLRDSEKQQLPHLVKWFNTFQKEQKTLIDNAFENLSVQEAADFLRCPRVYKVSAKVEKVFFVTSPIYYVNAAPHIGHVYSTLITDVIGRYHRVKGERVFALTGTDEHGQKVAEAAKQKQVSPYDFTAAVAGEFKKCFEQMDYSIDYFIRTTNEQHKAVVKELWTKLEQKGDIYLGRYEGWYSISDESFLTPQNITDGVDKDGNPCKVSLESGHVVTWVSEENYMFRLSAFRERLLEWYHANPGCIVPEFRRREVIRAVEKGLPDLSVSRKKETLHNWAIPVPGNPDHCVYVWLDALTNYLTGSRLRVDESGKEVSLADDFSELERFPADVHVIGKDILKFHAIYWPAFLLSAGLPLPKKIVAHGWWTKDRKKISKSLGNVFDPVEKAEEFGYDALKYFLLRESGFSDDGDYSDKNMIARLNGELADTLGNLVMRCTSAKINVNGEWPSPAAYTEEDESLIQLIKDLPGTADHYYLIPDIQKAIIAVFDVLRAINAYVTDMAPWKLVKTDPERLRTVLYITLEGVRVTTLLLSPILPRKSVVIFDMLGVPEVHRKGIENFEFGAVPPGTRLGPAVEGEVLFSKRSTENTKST

[10] = Counterscreen for inhibitors of Trypanosoma brucei methionyl tRNA synthetase (MetRS): Luminescence-based cell-based high throughput dose response assay to identify compounds that are cytotoxic to Jurkat human T lymphocyte cells.; assay type: functional
[11] = biological target: Beta-galactosidase (Escherichia coli, UniProt Q8VNN2); test: Dose response counterscreen for EBI2 assay utilizing the enzyme, b-galactosidase.; assay type: functional
[12] = biological target: T2, Ubiquitin-conjugating enzyme E2 N (Homo sapiens, UniProt P61088); assay type: functional;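 also: Dose-response confirmation in a TR-FRET assay detecting UBC13-driven polyubiquitin chain formation, inhibition measured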
T2 sequence (P61088 whole entry): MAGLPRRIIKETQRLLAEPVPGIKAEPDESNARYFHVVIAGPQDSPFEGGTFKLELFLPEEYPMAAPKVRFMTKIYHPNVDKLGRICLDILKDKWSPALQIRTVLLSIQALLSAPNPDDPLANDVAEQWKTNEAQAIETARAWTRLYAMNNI

[13] = biological target: T3, DNA repair and recombination protein RAD54-like (Homo sapiens, UniProt Q92698); test: RAD54 Holliday junction migration blockers – biochemical, fluorescence, cherry-picked samples, dose series, confirmation (AID 651657); assay type: functional
T3 sequence (Q92698 whole entry): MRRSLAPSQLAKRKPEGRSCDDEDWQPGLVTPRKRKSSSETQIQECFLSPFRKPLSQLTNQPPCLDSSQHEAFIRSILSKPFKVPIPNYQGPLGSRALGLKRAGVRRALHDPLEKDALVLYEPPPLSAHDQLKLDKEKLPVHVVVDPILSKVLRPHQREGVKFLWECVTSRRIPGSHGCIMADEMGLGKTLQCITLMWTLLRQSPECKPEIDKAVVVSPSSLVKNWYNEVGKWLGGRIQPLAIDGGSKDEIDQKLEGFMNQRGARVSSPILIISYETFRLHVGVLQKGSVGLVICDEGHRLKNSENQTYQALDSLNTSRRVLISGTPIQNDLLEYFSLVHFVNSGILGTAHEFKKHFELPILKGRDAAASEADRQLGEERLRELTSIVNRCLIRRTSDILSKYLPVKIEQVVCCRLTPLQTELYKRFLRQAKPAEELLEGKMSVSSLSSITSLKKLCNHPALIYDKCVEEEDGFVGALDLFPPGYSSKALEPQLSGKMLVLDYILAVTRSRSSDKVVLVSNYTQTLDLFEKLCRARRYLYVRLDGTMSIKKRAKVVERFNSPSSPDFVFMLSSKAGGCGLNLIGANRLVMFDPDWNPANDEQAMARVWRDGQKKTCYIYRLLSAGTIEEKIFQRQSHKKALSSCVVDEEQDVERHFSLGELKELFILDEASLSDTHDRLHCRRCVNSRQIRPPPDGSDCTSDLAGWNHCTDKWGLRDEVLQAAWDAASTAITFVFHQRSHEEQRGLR

[14] = biological target: T4, DNA repair protein RAD52 homolog (Homo sapiens, UniProt P43351); assay type: functional, biochemical
T4 sequence (P43351 whole entry): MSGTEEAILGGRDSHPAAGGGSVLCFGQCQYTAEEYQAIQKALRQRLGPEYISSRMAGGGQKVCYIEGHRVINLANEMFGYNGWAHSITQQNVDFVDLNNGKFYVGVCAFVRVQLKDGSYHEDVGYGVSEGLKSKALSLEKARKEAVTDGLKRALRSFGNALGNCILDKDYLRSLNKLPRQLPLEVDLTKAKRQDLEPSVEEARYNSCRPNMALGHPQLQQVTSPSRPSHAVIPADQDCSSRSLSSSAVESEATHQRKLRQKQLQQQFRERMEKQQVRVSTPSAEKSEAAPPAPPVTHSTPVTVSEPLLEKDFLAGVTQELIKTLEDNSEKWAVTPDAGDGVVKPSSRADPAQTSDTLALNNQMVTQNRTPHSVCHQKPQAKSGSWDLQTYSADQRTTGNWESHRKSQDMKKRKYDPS

[15] = biological target: Cytochrome P450 3A4 (Homo sapiens, UniProt P08684);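 also: CYP3A4 tested as one member of a cytochrome P450 panel screen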
[16] = biological target: T5, Estrogen receptor (Homo sapiens, UniProt P03372);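 also: potency for inhibiting coactivator peptide recruitment to the receptor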
T5 sequence (P03372 whole entry): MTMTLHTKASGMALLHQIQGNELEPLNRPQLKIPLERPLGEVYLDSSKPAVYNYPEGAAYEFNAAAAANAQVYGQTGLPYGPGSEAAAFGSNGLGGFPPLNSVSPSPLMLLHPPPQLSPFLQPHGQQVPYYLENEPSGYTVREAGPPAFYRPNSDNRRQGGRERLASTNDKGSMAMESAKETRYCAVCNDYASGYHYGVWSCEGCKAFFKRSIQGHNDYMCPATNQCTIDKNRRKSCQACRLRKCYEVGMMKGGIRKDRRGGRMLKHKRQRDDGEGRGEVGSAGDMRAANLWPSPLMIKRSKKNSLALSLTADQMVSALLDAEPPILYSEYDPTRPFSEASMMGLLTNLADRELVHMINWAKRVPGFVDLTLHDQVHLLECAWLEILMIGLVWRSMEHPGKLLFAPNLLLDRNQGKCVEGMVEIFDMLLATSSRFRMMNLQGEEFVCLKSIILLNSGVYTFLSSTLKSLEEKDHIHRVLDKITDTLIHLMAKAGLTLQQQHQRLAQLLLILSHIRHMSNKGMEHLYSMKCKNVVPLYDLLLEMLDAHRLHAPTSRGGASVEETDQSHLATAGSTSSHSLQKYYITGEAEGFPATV

[17] = biological target: T6, Estrogen receptor beta (Homo sapiens, UniProt Q92731);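 also: recombinant ER-beta bound to coactivator SRC1 peptide in presence of estradiol agonist; inhibitors block coactivator peptide binding and lower the FRET signal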
[18] = biological target: T6, Estrogen receptor beta; test: blockers of SRC-3 recruitment to ERβ – biochemical, ELISA, streptavidin-HRP readout, orthogonal assay, confirmation (AID 1060)
[19] = biological target: Cytochrome P450 2C9 (Homo sapiens, UniProt P11712)
[20] = biological target: DNA dC->dU-editing enzyme APOBEC-3A (Homo sapiens, UniProt P31941); test: Dose Response confirmation of small molecule APOBEC3A DNA Deaminase Inhibitors via a fluorescence-based single-stranded DNA deaminase assay. [Related pubchem assays (depositor defined):AID493011, AID493024]; assay type: functional
[21] = biological target: DNA dC->dU-editing enzyme APOBEC-3G (Homo sapiens, UniProt Q9HC16); assay type: functional;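 also: Dose-response counterscreen measuring inhibition of APOBEC3G DNA deaminase activity, run while confirming APOBEC3A inhibitors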
[22] = NIH-3T3 fibroblast cytotoxicity, dose response, cytotoxicity control, cell-based, fluorescence, Alamar Blue, secondary assay (AID 2327); assay type: functional;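 also: NIH-3T3 mouse fibroblasts cultured with fluconazole at 8 µg/mL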
[23] = fluconazole-exposed Candida albicans growth modulators – fluorescence, retest, confirmation (AID 2467); assay type: functional, cell-based
[24] = intracellular Trypanosoma cruzi inhibitors in host cells – cell-based, plate reader, cherry-pick samples, set 3, dose response (AID 651818); assay type: functional;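 also: compounds incubated with infected cells for about four days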

Chain of Voltage-dependent T-type calcium channel subunit alpha-1H (O95180 whole entry): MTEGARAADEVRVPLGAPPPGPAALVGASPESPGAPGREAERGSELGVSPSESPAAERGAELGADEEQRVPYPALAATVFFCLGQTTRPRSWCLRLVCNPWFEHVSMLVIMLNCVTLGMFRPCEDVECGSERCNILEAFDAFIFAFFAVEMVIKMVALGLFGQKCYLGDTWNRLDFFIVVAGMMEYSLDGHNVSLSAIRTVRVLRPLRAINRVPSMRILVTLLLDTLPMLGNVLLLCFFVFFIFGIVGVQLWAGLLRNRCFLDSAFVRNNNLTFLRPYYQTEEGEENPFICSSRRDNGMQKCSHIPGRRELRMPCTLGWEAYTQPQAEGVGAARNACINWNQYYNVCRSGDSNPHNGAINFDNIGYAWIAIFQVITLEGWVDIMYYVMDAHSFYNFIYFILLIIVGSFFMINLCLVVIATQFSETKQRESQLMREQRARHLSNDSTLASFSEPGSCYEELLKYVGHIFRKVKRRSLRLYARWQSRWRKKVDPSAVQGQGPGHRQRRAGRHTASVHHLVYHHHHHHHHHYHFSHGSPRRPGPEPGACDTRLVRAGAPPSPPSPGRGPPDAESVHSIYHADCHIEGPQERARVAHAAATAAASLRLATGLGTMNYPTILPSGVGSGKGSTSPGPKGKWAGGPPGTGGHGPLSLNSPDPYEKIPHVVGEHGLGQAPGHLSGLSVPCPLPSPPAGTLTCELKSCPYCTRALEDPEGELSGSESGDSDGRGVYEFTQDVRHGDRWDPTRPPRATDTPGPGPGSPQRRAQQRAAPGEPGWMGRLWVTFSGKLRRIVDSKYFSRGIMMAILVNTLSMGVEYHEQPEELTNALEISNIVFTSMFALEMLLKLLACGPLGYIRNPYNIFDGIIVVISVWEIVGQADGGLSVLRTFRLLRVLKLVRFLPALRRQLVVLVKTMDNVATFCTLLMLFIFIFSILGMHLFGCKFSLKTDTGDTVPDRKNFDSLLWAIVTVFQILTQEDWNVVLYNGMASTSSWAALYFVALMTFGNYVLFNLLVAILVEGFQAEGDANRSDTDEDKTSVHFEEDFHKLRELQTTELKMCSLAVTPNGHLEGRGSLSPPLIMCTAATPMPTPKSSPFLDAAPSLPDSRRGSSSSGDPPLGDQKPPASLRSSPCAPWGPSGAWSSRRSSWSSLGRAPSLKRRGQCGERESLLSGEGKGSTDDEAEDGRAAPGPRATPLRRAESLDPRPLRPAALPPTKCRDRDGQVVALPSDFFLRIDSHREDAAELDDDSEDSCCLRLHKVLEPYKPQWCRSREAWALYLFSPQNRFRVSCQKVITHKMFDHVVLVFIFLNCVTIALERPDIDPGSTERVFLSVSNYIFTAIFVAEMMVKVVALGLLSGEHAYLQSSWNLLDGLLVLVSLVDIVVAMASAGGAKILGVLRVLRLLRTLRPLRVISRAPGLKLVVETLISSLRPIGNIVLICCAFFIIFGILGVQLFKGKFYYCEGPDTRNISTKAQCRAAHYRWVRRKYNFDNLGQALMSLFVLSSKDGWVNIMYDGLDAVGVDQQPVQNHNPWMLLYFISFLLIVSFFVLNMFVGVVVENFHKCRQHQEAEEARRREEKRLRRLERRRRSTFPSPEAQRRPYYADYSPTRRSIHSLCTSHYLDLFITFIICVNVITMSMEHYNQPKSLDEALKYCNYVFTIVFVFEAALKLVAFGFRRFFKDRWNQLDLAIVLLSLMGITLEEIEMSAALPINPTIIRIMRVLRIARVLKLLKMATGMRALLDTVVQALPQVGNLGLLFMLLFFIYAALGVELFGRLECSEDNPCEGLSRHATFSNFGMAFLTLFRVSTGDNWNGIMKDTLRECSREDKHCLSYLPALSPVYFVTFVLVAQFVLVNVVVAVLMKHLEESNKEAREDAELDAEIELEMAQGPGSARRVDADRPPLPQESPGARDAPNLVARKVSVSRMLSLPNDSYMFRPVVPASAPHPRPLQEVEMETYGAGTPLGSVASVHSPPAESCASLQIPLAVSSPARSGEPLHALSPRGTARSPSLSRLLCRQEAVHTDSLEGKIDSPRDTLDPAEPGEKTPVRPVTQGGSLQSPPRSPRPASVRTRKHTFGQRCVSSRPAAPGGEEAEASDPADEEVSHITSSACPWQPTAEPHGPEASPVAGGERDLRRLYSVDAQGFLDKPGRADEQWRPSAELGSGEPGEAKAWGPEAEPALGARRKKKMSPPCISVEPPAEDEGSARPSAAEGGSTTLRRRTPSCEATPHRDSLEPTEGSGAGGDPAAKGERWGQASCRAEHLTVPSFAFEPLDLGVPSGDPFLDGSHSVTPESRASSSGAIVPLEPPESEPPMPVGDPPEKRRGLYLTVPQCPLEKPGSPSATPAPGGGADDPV
Chain of Beta-galactosidase (Q8VNN2 whole entry): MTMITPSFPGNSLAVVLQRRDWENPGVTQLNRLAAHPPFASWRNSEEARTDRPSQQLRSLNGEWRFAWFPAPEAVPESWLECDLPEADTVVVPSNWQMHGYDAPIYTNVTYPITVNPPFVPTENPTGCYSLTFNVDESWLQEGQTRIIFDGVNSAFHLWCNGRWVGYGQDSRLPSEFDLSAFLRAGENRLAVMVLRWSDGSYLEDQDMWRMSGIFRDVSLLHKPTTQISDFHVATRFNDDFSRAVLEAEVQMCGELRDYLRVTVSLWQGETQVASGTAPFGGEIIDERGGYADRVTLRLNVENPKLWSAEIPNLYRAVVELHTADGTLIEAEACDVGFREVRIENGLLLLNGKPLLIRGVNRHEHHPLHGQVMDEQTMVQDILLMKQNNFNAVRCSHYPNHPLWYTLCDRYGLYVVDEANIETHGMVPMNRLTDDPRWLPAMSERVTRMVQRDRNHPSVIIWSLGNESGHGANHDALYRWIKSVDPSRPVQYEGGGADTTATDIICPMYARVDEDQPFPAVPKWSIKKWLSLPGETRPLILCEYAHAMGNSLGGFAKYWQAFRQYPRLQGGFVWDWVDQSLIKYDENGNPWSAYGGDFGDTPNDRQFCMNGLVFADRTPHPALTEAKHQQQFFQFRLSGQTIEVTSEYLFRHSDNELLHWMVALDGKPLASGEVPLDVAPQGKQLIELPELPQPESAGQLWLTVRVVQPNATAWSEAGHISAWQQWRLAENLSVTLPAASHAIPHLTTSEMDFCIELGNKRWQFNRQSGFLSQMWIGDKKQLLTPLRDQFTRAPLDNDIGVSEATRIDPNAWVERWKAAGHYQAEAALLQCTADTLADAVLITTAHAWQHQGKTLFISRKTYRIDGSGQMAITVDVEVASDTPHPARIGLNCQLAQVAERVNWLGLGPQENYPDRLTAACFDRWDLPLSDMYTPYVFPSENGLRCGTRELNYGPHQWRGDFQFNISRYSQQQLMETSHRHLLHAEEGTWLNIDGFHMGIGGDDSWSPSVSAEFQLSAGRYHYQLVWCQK
Chain of Cytochrome P450 3A4 (P08684 whole entry): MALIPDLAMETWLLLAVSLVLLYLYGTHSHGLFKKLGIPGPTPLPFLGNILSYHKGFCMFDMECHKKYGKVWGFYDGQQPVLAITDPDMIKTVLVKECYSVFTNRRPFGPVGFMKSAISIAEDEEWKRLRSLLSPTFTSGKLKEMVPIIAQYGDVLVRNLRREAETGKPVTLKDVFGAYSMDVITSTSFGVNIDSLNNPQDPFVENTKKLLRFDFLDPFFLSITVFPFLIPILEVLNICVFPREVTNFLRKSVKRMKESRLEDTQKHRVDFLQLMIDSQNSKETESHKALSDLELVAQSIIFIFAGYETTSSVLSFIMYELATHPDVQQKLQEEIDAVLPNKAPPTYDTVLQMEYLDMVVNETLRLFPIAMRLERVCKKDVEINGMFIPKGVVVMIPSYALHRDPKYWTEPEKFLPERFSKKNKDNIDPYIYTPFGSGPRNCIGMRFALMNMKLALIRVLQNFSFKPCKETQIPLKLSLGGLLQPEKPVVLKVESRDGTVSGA
T6 sequence (Q92731 whole entry): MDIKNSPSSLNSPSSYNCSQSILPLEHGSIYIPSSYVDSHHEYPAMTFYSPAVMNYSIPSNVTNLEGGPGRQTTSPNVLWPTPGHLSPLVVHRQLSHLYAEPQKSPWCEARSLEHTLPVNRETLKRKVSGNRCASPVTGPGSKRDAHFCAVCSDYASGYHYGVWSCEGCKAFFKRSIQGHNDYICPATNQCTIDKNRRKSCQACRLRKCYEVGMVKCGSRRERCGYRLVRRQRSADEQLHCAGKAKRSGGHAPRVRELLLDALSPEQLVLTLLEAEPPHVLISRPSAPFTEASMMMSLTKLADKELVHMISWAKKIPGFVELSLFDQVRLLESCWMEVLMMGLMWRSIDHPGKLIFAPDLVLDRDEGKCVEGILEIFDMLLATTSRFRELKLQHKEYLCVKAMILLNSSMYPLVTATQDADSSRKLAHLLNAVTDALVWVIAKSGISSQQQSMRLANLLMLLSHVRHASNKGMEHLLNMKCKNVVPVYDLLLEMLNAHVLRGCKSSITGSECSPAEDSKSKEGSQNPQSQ
Chain of DNA dC->dU-editing enzyme APOBEC-3G (Q9HC16 whole entry): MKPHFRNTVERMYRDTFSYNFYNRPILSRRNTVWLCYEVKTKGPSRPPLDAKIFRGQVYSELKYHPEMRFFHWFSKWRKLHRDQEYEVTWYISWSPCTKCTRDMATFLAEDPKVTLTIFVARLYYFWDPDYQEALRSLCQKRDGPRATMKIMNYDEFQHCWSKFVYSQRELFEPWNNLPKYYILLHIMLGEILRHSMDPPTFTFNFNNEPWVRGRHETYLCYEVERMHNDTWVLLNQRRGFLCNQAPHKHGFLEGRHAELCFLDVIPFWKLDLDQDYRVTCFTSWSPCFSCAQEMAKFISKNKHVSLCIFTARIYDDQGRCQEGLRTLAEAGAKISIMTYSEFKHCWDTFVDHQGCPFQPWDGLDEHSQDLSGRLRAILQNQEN
Chain of DNA dC->dU-editing enzyme APOBEC-3A (P31941 whole entry): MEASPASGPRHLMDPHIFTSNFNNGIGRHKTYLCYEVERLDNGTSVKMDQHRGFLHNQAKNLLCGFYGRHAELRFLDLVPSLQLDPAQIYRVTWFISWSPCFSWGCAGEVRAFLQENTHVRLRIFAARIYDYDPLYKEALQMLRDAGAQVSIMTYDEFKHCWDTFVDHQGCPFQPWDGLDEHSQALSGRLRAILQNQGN

Compound: CCOC(=O)CN1C(=O)C(Sc2n[nH]c(-c3ccccc3)n2)CCc2ccccc21 (centres undefined)
- IC50 [1]: > 100 µM (active)

Compound: O=C(Nc1nc(-c2cccs2)cs1)c1cccc(S(=O)(=O)N2CCCCC2)c1
- EC50 [2]: 4.13 µM (active)

Compound: CCOC(=O)c1sc(NC(=O)CSc2nnnn2-c2ccc(C)c(C)c2)nc1C
- EC50 [3]: 77.4 µM (not active)
- EC50 [4]: > 79.4 µM (not active)
- EC50 [5]: > 79.4 µM (not active)

Compound: CC1CCCN(c2ncnc3c2cnn3-c2ccccc2)C1 (centres undefined)
- AC50 [6]: > 52 µM (inactive)
- AC50 [7]: 2.89 µM (active)
- AC50 [8]: 6.32 µM (active)

Compound: CCN(CC)CCN(Cc1cc2cc3c(cc2[nH]c1=O)OCCO3)C(=O)NC1CCCCC1
- EC50 [3]: > 79.4 µM (not active)
- EC50 [4]: > 79.4 µM (not active)
- EC50 [5]: > 79.4 µM (not active)

Compound: Cc1csc(CNc2ncnc3ccc(-c4ccccc4Cl)cc23)c1
- IC50 [9]: 97.8 µM (inactive)
- IC50 [10]: 83.3 µM (inactive)

Compound: O=C(CCCOc1ccccc1)N1CCN(c2ccccc2)CC1
- EC50 [2]: 13.9 µM (active)

Compound: Cc1[nH]c(-c2ccc(F)cc2)cc1C(=O)N1CCN(c2ccccc2F)CC1
- IC50 [11]: > 80 µM (inactive)

Compound: CC(C)n1c(CCC(=O)O)ccc1-c1ccccc1
- IC50 [1]: > 100 µM (active)

Compound: CCN(CC)S(=O)(=O)c1ccc(C(=O)NCCSc2c[nH]c3ccccc23)cc1
- EC50 [2]: 3.87 µM (active)

Compound: Fc1ccccc1CSc1nc2ncc(Br)cc2[nH]1
- EC50 [3]: 24.2 µM (not active)
- EC50 [4]: 36.8 µM (not active)
- EC50 [5]: 49.5 µM (not active)
- IC50 [9]: 82.2 µM (inactive)

Compound: CCCCN(CC)CCNC(=O)c1cc2c(=O)n(C)c3ccccc3c2n1C
- IC50 [12]: > 20 µM (inactive)
- AC50 [13]: 32.3 µM (active)

Compound: N=c1c(C(=O)NCCN2CCOCC2)cc2c(=O)n3ccccc3nc2n1CCCN1CCOCC1
- AC50 [13]: 11.5 µM (active)
- AC50 [14]: 5.36 µM (active)

Compound: O=C(COc1ccc(Br)cc1)N1CCC(c2ccccc2)C1 (centres undefined)
- IC50 [11]: > 80 µM (inactive)
- AC50 [15]: 28.2 µM (inconclusive)

Compound: CCn1c(CSc2nc3ccccc3s2)nc2ccccc21
- EC50 [2]: 5.73 µM (active)

Compound: Cc1ccc(C(C)C)c(OCCN(C)C)c1
- IC50 [1]: > 100 µM (active)

Compound: O=C1NC(c2ccc(Br)cc2)Nc2sc3c(c21)CCC3 (centres undefined)
- IC50 [16]: 19.4 µM (active)
- IC50 [17]: > 50 µM (not active)
- IC50 [18]: < 0.023 µM (not active)
- AC50 [15]: 28.2 µM (inconclusive)
- AC50 [19]: 6.31 µM (inconclusive)

Compound: Cc1ccc(C)c(SCC(=O)OCC(=O)c2ccco2)c1
- IC50 [16]: > 50 µM (not active)
- IC50 [17]: 6.74 µM (active)
- IC50 [18]: 0.0912 µM (not active)
- IC50 [20]: 18 µM (active)
- IC50 [21]: 46.3 µM (active)

Compound: O=C1C=C(Nc2ccc(Cl)cc2)CC(c2ccc(Cl)cc2)C1 (centres undefined)
- IC50 [11]: > 80 µM (inactive)
- AC50 [15]: 20 µM (inconclusive)

Compound: O=C(/C=C/c1ccc(F)cc1)N1CCN(c2ccccn2)CC1
- EC50 [22]: > 160 µM (inactive)
- EC50 [23]: 2.94 µM (active)
- IC50 [11]: > 80 µM (inactive)

Compound: C[C@@H]1CN([C@@H](C)CO)C(=O)c2cccc(NC(=O)Nc3ccc(C(F)(F)F)cc3)c2O[C@H]1CN(C)S(=O)(=O)c1cccs1
- AC50 [24]: 4.64 µM (active)

Compound: CCOC(=O)c1s/c(=N\C(=O)c2cccc(OC)c2)n(C)c1C
- EC50 [3]: 10.5 µM (not active)
- EC50 [4]: 11 µM (not active)
- EC50 [5]: 15.2 µM (not active)

Compound: CC1=CCC(/C=N\Nc2n[nH]c3c4ccccc4nc-3n2)CC1 (centres undefined)
- IC50 [1]: > 100 µM (active)
